Like-named read-outs stand apart in the source and are kept apart here.
Target: T1, SIRT1 (Homo sapiens, UniProt Q96EB6)
T1 sequence (Q96EB6 1-747): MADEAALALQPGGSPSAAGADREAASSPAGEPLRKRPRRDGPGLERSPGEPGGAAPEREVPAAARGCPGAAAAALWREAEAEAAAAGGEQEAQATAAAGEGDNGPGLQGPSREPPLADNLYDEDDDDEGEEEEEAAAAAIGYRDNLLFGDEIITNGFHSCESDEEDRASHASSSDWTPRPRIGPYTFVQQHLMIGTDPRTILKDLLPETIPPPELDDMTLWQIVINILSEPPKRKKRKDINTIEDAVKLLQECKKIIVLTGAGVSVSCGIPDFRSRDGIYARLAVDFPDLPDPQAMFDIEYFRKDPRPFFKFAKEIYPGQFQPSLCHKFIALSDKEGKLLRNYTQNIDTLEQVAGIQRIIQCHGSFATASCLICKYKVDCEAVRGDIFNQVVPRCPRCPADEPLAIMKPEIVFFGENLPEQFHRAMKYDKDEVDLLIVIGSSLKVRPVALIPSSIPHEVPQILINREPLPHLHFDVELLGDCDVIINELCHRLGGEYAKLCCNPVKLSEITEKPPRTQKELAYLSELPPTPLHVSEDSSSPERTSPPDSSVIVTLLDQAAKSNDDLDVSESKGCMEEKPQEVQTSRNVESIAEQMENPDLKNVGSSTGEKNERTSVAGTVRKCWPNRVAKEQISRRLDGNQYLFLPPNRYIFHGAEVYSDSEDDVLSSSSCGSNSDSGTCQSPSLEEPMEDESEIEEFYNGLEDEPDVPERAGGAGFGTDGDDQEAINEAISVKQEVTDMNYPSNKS
Assay: Trp mass spectrometry assay of SIRT1 activity
Format: biochemical
Settings: for Emax: read-out: Trp % Fold Act; for Trp EC1.5 (μM): concentration giving 150% activation of SIRT1
Outline: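 Activation readout: EC1.5 (concentration raising activity 50% over control) and percent maximum activation, from mass-spec quantitation of OAADPR or deacetylated Trp peptide. Reaction: 0.5 μM acetylated Trp peptide, 120 μM βNAD+, 10 nM bacterially expressed N-His SIRT1, pH 7.5 HEPES buffer with […], 25 min at 25° C.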

[1] = percent maximum fold activation of SIRT1, Trp peptide substrate
[2] = Trp assay, percent maximum fold activation

Row | Compound | Emax [1] [%] | Trp EC1.5 (μM) (Trp assay) | Emax [2] [%]
1 | Cc1nc(NC(=O)c2cnn3ccc(N4CCC[C@H]4C(F)(F)F)nc23)sc1C [Compound 1032, (S)-N-(4,5-dimethylthiazol-2-yl)-5-(2-(trifluoromethyl)pyrrolidin-1-yl)pyrazolo[1,5-a]pyrimidine-3-carboxamide] | ≥ 350 | – | –
2 | O=C(Nc1cncc(F)c1)c1cnn2ccc(N3CCCC(C(F)(F)F)C3)nc12 (stereo not shown) [Compound 1009] | ≥ 350 | – | –
3 | Cc1nn2ccc(N3CCC[C@@H]3C(F)(F)F)nc2c1C(=O)Nc1cccnc1 [Compound 1071] | ≥ 350 | – | –
4 | O=C(Nc1cccnc1)c1cnn2ccc(N3CCC(C(F)(F)F)CC3)nc12 [Compound 1066] | ≥ 350 | – | –
5 | CN(C)c1cccc(NC(=O)c2cnc3ccc(-c4cccc(OC[C@H](O)CO)c4)nn23)n1 [Compound 876] | – | A (EC1.5<1 μM) | ≥ 350
6 | O=C(Nc1cccnc1)c1cnn2ccc(N3CCCCC3C(F)(F)F)nc12 (stereo not shown) [Compound 945, N-(pyridin-3-yl)-5-(2-(trifluoromethyl)piperidin-1-yl)pyrazolo[1,5-a]pyrimidine-3-carboxamide] | – | A (EC1.5<1 μM) | ≥ 350
7 | O=C(Nc1ccccn1)c1cnn2ccc(N3CCCC3C(F)(F)F)nc12 (stereo not shown) [Compound 999] | – | – | ≥ 350
8 | O=C(Nc1ccccn1)c1cnn2ccc(N3CCCCC3C(F)(F)F)nc12 (stereo not shown) [Compound 957] | – | – | ≥ 350
9 | Cc1cncc(NC(=O)c2c(C)nn3ccc(N4CCC[C@H]4C(F)(F)F)nc23)c1 [Compound 1036] | ≥ 350 | – | –
10 | O=C(Nc1ccncn1)c1cnn2ccc(N3CCC[C@@H]3C(F)(F)F)nc12 [Compound 1093] | < 350 | – | –
11 | Cc1nc(NC(=O)c2cnn3ccc(N4CCCC4C)nc23)sc1C (stereo not shown) [Compound 1038] | < 350 | – | –
12 | Cc1nn2ccc(N3CCC[C@@H]3C(F)(F)F)nc2c1C(=O)Nc1cncc(F)c1 [Compound 1069] | ≥ 350 | – | –
13 | O=C(Nc1ccncc1F)c1cnc2ccc(-c3cccc(OC[C@H](O)CO)c3)nn12 [Compound 883] | – | A (EC1.5<1 μM) | < 350
14 | Cc1nc2c(OC[C@H](O)CO)cc(-c3ccccc3C(F)(F)F)nn2c1C(=O)Nc1ccncc1F [Compound 843] | – | A (EC1.5<1 μM) | ≥ 350
15 | O=C(Nc1cccnc1)c1cnn2ccc(N3CCCC3C(F)(F)F)nc12 (stereo not shown) [Compound 1000] | ≥ 350 | – | –
16 | Cc1nc2ccc(N3CC[C@H](F)C3)nn2c1C(=O)Nc1ccncn1 [Compound 855] | – | B (EC1.5 1-25 μM) | ≥ 350
17 | O=C(Nc1cnccn1)c1cnn2ccc(N3CCC(C(F)(F)F)CC3)nc12 [Compound 1061] | ≥ 350 | – | –
18 | Cc1nc2ccc(N3CC[C@H](F)C3)nn2c1C(=O)Nc1cnccn1 [Compound 845] | – | B (EC1.5 1-25 μM) | < 350
19 | O=C(Nc1ccccn1)c1cnn2ccc(N3CCC(C(F)(F)F)CC3)nc12 [Compound 1060] | ≥ 350 | – | –
20 | O=C(Nc1cccnc1)c1cnc2ccc(-c3cccc(OC[C@H](O)CO)c3)nn12 [Compound 858] | – | B (EC1.5 1-25 μM) | < 350
21 | O=C(Nc1ccccn1)c1cnn2ccc(N3CCC[C@@H]3C(F)(F)F)nc12 [Compound 1090] | < 350 | – | –
22 | Cc1cncc(NC(=O)c2cnn3ccc(N4CCC(C(F)(F)F)CC4)nc23)c1 [Compound 1073] | ≥ 350 | – | –
23 | Cc1nc(NC(=O)c2c(C)nn3ccc(N4CCC[C@@H]4C(F)(F)F)nc23)sc1C [Compound 1082] | ≥ 350 | – | –
24 | COc1nccc(NC(=O)c2cnn3ccc(N4CCC[C@@H]4C(F)(F)F)nc23)n1 [Compound 1080] | ≥ 350 | – | –
25 | O=C(Nc1cncc(F)c1)c1cnn2ccc(N3CCC[C@H]3C(F)(F)F)nc12 [Compound 1028] | ≥ 350 | – | –
26 | O=C(Nc1ccc(F)cn1)c1cnc2ccc(-c3cccc(OC[C@H](O)CO)c3)nn12 [Compound 884] | – | B (EC1.5 1-25 μM) | < 350
27 | O=C(Nc1cccnn1)c1cnc2ccc(N3CCCC3C(F)(F)F)nn12 (stereo not shown) [Compound 968] | – | – | ≥ 350
28 | O=C(Nc1cc(-c2cnco2)ccn1)c1cnn2ccc(N3CCC(C(F)(F)F)CC3)nc12 [Compound 1074] | ≥ 350 | – | –
29 | COc1nccc(NC(=O)c2cnn3ccc(N4CCCC4C)nc23)n1 (stereo not shown) [Compound 1043] | < 350 | – | –
30 | O=C(Nc1cncc(F)c1)c1cnn2ccc(N3CCC(C(F)(F)F)CC3)nc12 [Compound 1067] | ≥ 350 | – | –

Further lines, results first:

Row | Emax [1] [%] | Trp EC1.5 (μM) (Trp assay) | Emax [2] [%] | Compound
31 | – | A (EC1.5<1 μM) | ≥ 350 | Cc1cncc(NC(=O)c2cnc3ccc(N4CCCC(C(F)(F)F)C4)nn23)c1 (stereo not shown) [Compound 901]
32 | – | B (EC1.5 1-25 μM) | < 350 | O=C(Nc1ccncc1F)c1cnc2ccc(N3CC[C@H](F)C3)nn12 [Compound 839]
33 | ≥ 350 | – | – | O=C(Nc1cc(-c2cnco2)ccn1)c1cnc2ccc(N3CCCC3C(F)(F)F)nn12 (stereo not shown) [Compound 1098]
34 | – | – | ≥ 350 | O=C(Nc1ccc(F)cn1)c1cnc2ccc(N3CCC[C@H](F)C3)nn12 [Compound 988]
35 | – | – | < 350 | Cc1nc2ccc(N3CCC(F)(F)C3)nn2c1C(=O)Nc1cncc(F)c1 [Compound 991]
36 | – | – | < 350 | CC1(C)CCN(c2ccc3ncc(C(=O)Nc4cncc(F)c4)n3n2)C1 [Compound 956]
37 | – | B (EC1.5 1-25 μM) | < 350 | O=C(Nc1cnccn1)c1cnc2ccc(N3CCC(F)(F)C3)nn12 [Compound 905]
38 | – | – | < 350 | CC1(C)CCN(c2ccc3ncc(C(=O)Nc4ccc(F)cn4)n3n2)C1 [Compound 954]
39 | – | – | ≥ 350 | O=C(Nc1cccnc1)c1cnc2ccc(N3CCC[C@H](F)C3)nn12 [Compound 987]
40 | ≥ 350 | – | – | C[C@H]1CCCN1c1ccc2ncc(C(=O)Nc3ccccn3)n2n1 [Compound 1053]
41 | – | B (EC1.5 1-25 μM) | ≥ 350 | O=C(Nc1ccccn1)c1cnc2ccc(N3CCC(F)(F)C3)nn12 [Compound 909]
42 | – | – | < 350 | O=C(Nc1ccncn1)c1cnc2ccc(N3CCC(F)(F)CC3)nn12 [Compound 964]
43 | – | – | < 350 | CN1CCN(c2ccc3ncc(C(=O)Nc4ccncn4)n3n2)CC1 [Compound 971]
44 | – | B (EC1.5 1-25 μM) | < 350 | O=C(Nc1ccncn1)c1cnc2ccc(N3CCC(F)(F)C3)nn12 [Compound 906]
45 | – | A (EC1.5<1 μM) | ≥ 350 | O=C(Nc1cccnc1)c1cnc2ccc(N3CCCC3C(F)(F)F)nn12 (stereo not shown) [Compound 966, N-(pyridin-3-yl)-6-(2-(trifluoromethyl)pyrrolidin-1-yl)imidazo[1,2-b]pyridazine-3-carboxamide]
46 | ≥ 350 | – | – | C[C@@H]1CN(c2ccc3ncc(C(=O)Nc4cncc(F)c4)n3n2)CCO1 [Compound 1004]
47 | – | B (EC1.5 1-25 μM) | < 350 | O=C(Nc1cccnc1)c1cnc2ccc(N3CCCC3)nn12 [Compound 896]
48 | – | – | < 350 | CN1CCN(c2ccc3ncc(C(=O)Nc4cncc(F)c4)n3n2)CC1 [Compound 951]
49 | – | C (EC1.5>25 μM) | < 350 | O=C(Nc1ccc(F)cn1)c1cnc2ccc(N3CC(F)(F)C3)nn12 [Compound 914]
50 | ≥ 350 | – | – | Cn1cc2ccc(NC(=O)c3cnc4ccc(N5CCCC5C(F)(F)F)nn34)cc2n1 (stereo not shown) [Compound 1092]
51 | – | – | ≥ 350 | C[C@@H]1CN(c2ccc3ncc(C(=O)Nc4cncc(F)c4)n3n2)C[C@H](C)O1 [Compound 997]
52 | – | A (EC1.5<1 μM) | ≥ 350 | O=C(Nc1cccnn1)c1cnc2ccc(N3CCCC(C(F)(F)F)C3)nn12 (stereo not shown) [Compound 902]
53 | – | – | ≥ 350 | O=C(Nc1cncc(F)c1)c1cnc2ccc(N3CCC(C(F)(F)F)C3)nn12 (stereo not shown) [Compound 959]
54 | – | C (EC1.5>25 μM) | < 350 | O=C(Nc1cnccn1)c1cnc2ccc(N3CC[C@H](F)C3)nn12 [Compound 853]
55 | – | A (EC1.5<1 μM) | ≥ 350 | CN(C)c1cccc(NC(=O)c2cnc3ccc(N4CC[C@H](F)C4)nn23)n1 [Compound 911]
56 | – | A (EC1.5<1 μM) | < 350 | O=C(Nc1ccc(F)cn1)c1cnc2ccc(N3CCCC(C(F)(F)F)C3)nn12 (stereo not shown) [Compound 900]
